{"source": "patent EP2118065B1", "about": "“Substituted 1H-benz[de]isoquinoline-1,3-diones” (priority 2007, dated 2008)", "key": {"caspase-6": {"system": "caspase-6", "test": "Caspase-6 colorimetric assay in MOLT-4 cells", "format": "cell-based, Human", "settings": "5 µg/ml, 24 hrs", "protocol": "Caspase 3 activity was measured by using caspase-3 colorimetric Assay kit (R&D Systems USA). Briefly, MOLT-4 (∼2x10^6cells) were treated with Compound 3f, camptothecin (5µM) and staurosporine (1µM) for 24h, and then cell centrifuged and pellet was lysed using 50µL cell lysis buffer. Cell lysates were mixed with 10µL of dithiothreitol (DTT) and 50µL reaction buffer (2X) containing 5 µL DEVD-pNA, a caspase-3 substrate, and incubated upto 24 hr at 37°C. Additional controls were included in this assay containing no cell lysate without substrate Enzyme-catalyzed release of pNA was monitored using a microplate reader at 405 nm (Fig. 2). Likewise, Caspase 6 activity was also measured using caspase-6 colorimetric Assay kit (R&D Systems USA). However, the enzyme and enzyme substrate (VEID-pNA) were different (Fig. 3). Treatment of the cells with Compound 3f induced caspase-3/6 activities. […] (Fig 2)."}, "U-937 lymphoma": {"system": "U-937 lymphoma", "test": "MTT in vitro cytotoxicity", "settings": "Homo sapiens, U-937, 96 h, read-out: IC50 value Lymphoma U-937"}, "Hep-2": {"system": "Hep-2", "test": "SRB in vitro cytotoxicity, human tumor cell line", "format": "cell-based", "settings": "10^-5 M, Liver: Hep-2, read-out: growth inhibition", "protocol": "(§1) Compounds 3a-g were screened by sulforhodamine-B (SRB) semi-automated assay in a battery of cell lines. […] A., et. al. (1991); Feasibility high flux anticancer screen utilizing diverse panel of human tumor cell lines in culture. J Natl Cancer Inst. 83, 757-766]. Each compound was tested in triplicate sets of experiments at 10^-4 to 10^-6 M concentrations (Table 4).\n(§2) A stock solution of 2 x 10^-2M was prepared in DMSO. The stock solutions were serially diluted to obtain working test solutions with complete growth medium (RPMI-1640 medium with 2mM glutamine, 100µg/ml streptomycin, pH 7.4, sterilized by filtration and supplemented with 10% fetal bovine serum and 100 units/ml penicillin before use) containing 50 µg/ml of gentamycin to obtain working test solutions. The working test solutions were not filtered/ sterilized but microbial contamination was controlled by addition of gentamycin in complete growth medium used for dilution of stock solutions to prepare working test solutions.\n(§3) In vitro cytotoxicity against human cancer cell lines was determined^2 [Monk. A., et. al. (1991); Feasibility high flux anticancer screen utilizing diverse panel of human tumor cell lines in culture. J Natl Cancer Inst. 83, 757-766] using 96-well tissue culture plates. The cells were grown in tissue culture flasks in complete growth medium at 37°C in an atmosphere of 5% CO2 and 95% relative humidity in a carbon dioxide incubator. The cell suspension of required cell density (1-2 lakhs/ml) depending on the mass doubling time of cell lines was prepared in complete growth medium for determination of cytotoxicity. The aliquots of 100 µl of cell suspension were added to each well on a 96-well tissue culture plate. The blank wells contained complete medium in place of cell suspension. Simultaneously, control experiments with positive controls containing known anticancer agents were carried out. Cells were incubated for 24 hr.\n(§4) The test materials (100 µl in each well) were added after 24-hours to the wells containing cell suspension and blank wells. The cells were allowed to grow in presence of test material by further incubating the plates for 48 hours. At the end of incubation period the cell growth was stopped by gently layering trichloroacetic acid (50% TCA, 50µl/well) on top of the medium in all the wells. The plates were incubated at 4°C for 1 hr. The plates were washed five times with distilled water to remove TCA, growth medium, low molecular weight metabolites, serum proteins etc. and air-dried.\n(§5) The cell growth was measured^3 [Skehan, P, Storeng, R Scudiero, D, Monks, A, Mcmahon, J, Vistica, D, Warren, J.T., Bokesch, H., Kenney, S., Boyd, M.R. (1990). New colorimetric cytotoxicity assay for anti-cancer drug screening. J Natl Cancer Inst. 82: 1107-12] by staining with Sulphorhodamine B. Sulphorhodamine B (SRB, 0.4% in 1% acetic acid, 100 µl/well) was added to each well and plates were allowed to stand at room temperature for 30 minutes. The plates were washed with 1% acetic acid four times and then dried. Tris-HCl buffer (0.01 M, pH 10.5, 100 µl/well) was added to each well to solublise the dye. The plates were shaken gently for 10 minutes on a shaker and the optical density was recorded on ELISA reader at 540 nm. The cell growth was determined by subtracting mean OD value of respective blank from the mean OD value of experimental set. Percent growth in presence of test material was calculated considering the growth in absence of any test material as 100% and in turn percent growth inhibition in presence of test material was calculated. All the experiments were carried out in quadruplicate."}, "SKOV-3": {"system": "SKOV-3", "test": "SRB in vitro cytotoxicity, human tumor cell line", "format": "cell-based", "settings": "SK-OV-3, 10^-5 M, Ovarian: SKOV-3, read-out: growth inhibition", "protocol": "as §1, §2, §3, §4, §5"}, "SW-620": {"system": "SW-620", "test": "SRB in vitro cytotoxicity, human tumor cell line", "format": "cell-based", "settings": "10^-5 M, Colon: SW-620, read-out: growth inhibition", "protocol": "as §1, §2, §3, §4, §5"}, "HCT-15": {"system": "HCT-15", "test": "SRB in vitro cytotoxicity, human tumor cell line", "format": "cell-based", "settings": "10^-5 M, Colon: HCT-15, read-out: growth inhibition", "protocol": "as §1, §2, §3, §4, §5"}, "[1]": {"system": "Ehrlich ascites carcinoma (EAC)", "test": "In vivo anticancer activity: increase in median survival time", "set-up": "species or system Swiss albino male mice", "settings": "60 mg/kg i.p., 7 injns., days 1-7"}, "HL-60 cells": {"system": "HL-60 cells", "test": "Annexin V-FITC/PI flow cytometric analysis of apoptosis", "format": "cell-based, human", "settings": "24 h", "protocol": "Induction of apoptosis in vitro by Compound 3b and 3f was further determined in HL-60 cells by flow cytometric assay using an Annexin V-FITC Apoptosis Detection Kit (BD Biosciences Pharmingen, San Diego, USA). Camptothecin was included in the study for comparison. Exponentially growing HL-60 cells in complete RPMI-1640 media (100 µl of 5×10^6) were plated in six well plates. 10 µl of each Compound in DMSO (5 and 10 µM concentrations) was added to the wells followed by the addition of required media (total volume 1ml). Plates were incubated at 37°C for 24 h. The cells were centrifuged at room temperature at 1500 rpm for 5 min. The pellet was washed twice with cold PBS and was re-suspended in the binding buffer (1X, 100µl) provided in the Kit. The cells were stained with Annexin V-FITC (5 µl) and Propidium Iodide [PI] (5µl) and incubated for 15 min in the dark at 25°C. Next 400µl of binding buffer was added to each tube and analyzed on a FACScan flow cytometer (Becton Dickinson, Mountainview, CA) using Cell Quest software. Cells stained with both Annexin-V-FITC and PI, containing DMSO as vehicle was used as stained control. Cells that were annexin^+ /Pr [Lower right quadrant (LR)] and annexin^+/PI^+ [Upper right quadrant (UR)] were considered as early apoptotic and late apoptotic respectively."}}, "data": [{"smiles": "O=C1c2cccc3c([N+](=O)[O-])ccc(c23)C(=O)N1CCCCl", "note": "[Compound 3f, 6-Nitro-2-[3-(Chloropropyl)]-1H-benz[de]isoquinoline-1,3-dione]", "values": [{"measurement": "Caspase-6 activity", "setting": "caspase-6", "value": "maximum at 5 µg/ml for 24 hrs"}, {"measurement": "IC50", "setting": "U-937 lymphoma", "value": 1950, "unit": "nM"}, {"measurement": "inhibition at 10 µM", "setting": "Hep-2", "value": "> 50", "unit": "%"}, {"measurement": "inhibition at 10 µM", "setting": "SKOV-3", "value": "≤ 50", "unit": "%"}, {"measurement": "inhibition at 10 µM", "setting": "SW-620", "value": "> 50", "unit": "%"}, {"measurement": "inhibition at 10 µM", "setting": "HCT-15", "value": "> 50", "unit": "%"}, {"measurement": "MST", "setting": "[1]", "value": 34.0, "unit": "days"}, {"measurement": "early apoptotic cells (Annexin V^+/PI^-), LR", "setting": "HL-60 cells; 5 µM", "value": 16.4, "unit": "%"}, {"measurement": "late apoptotic cells (Annexin V^+/PI^+), UR", "setting": "HL-60 cells; 5 µM", "value": 31.5, "unit": "%"}, {"measurement": "total apoptotic cells (apoptotic cell population)", "setting": "HL-60 cells; 5 µM", "value": 47.9, "unit": "%"}, {"measurement": "early apoptotic cells (Annexin V^+/PI^-), LR", "setting": "HL-60 cells; 10 µM", "value": 11.5, "unit": "%"}, {"measurement": "late apoptotic cells (Annexin V^+/PI^+), UR", "setting": "HL-60 cells; 10 µM", "value": 81.0, "unit": "%"}, {"measurement": "total apoptotic cells (apoptotic cell population)", "setting": "HL-60 cells; 10 µM", "value": 92.5, "unit": "%"}]}]}
